# Results taken from ChEMBL document CHEMBL3407459, “Synthesis and antimicrobial activity of novel structural hybrids of benzofuroxan and benzothiazole derivatives” (2015).
# Experiments:
# [1] = Activation of quorum sensing system luxR in Escherichia coli MG1655 harboring pVFR1-lux assessed as maximum induction factor at 10^-12 M after 120 mins by luminometric analysis; settings: Escherichia coli str. K-12 substr. MG1655
# Escherichia coli [2] = assay: Antibacterial activity against Escherichia coli MG1655 harboring pRecA-lux assessed as maximum induction factor at 10^-6 M after 120 mins by luminometric analysis; assay type: functional, K-12 substr. MG1655
# Escherichia coli [3] = assay: Antibacterial activity against Escherichia coli MG1655 harboring pKatG-lux assessed as maximum induction factor at 10^-13 M after 120 mins by luminometric analysis; assay type: functional, K-12 substr. MG1655
# Escherichia coli [4] = assay: Antibacterial activity against Escherichia coli MG1655 harboring pSoxS-lux assessed as maximum induction factor at 10^-7 M after 120 mins by luminometric analysis; assay type: functional, K-12 substr. MG1655
# Escherichia coli [5] = assay: Antibacterial activity against Escherichia coli MG1655 harboring pKatG-lux assessed as maximum induction factor at 10^-5 M after 120 mins by luminometric analysis; assay type: functional, K-12 substr. MG1655
# Escherichia coli [6] = assay: Antibacterial activity against Escherichia coli MG1655 harboring pSoxS-lux assessed as maximum induction factor at 10^-10 M after 120 mins by luminometric analysis; assay type: functional, K-12 substr. MG1655
# [7] = Activation of quorum sensing system luxR in Escherichia coli MG1655 harboring pVFR1-lux assessed as maximum induction factor at 10^-7 M after 120 mins by luminometric analysis; settings: Escherichia coli str. K-12 substr. MG1655
# Escherichia coli [8] = assay: Antibacterial activity against Escherichia coli MG1655 harboring pColD-lux assessed as maximum induction factor at 10^-6 M after 120 mins by luminometric analysis; assay type: functional, K-12 substr. MG1655
# Escherichia coli [9] = assay: Antibacterial activity against Escherichia coli MG1655 harboring pIbpA-lux assessed as maximum induction factor at 10^-8 M after 120 mins by luminometric analysis; assay type: functional, K-12 substr. MG1655
# Escherichia coli [10] = assay: Antibacterial activity against Escherichia coli MG1655 harboring pXen7 assessed as toxicity index at 10^-12 M measured for 2 hrs by luminometric analysis; assay type: functional, K-12 substr. MG1655
# Escherichia coli [11] = assay: Antibacterial activity against Escherichia coli MG1655 harboring pColD-lux assessed as maximum induction factor at 10^-7 M after 120 mins by luminometric analysis; assay type: functional, K-12 substr. MG1655
# Escherichia coli [12] = assay: Antibacterial activity against Escherichia coli MG1655 harboring pColD-lux assessed as maximum induction factor at 10^-3 M after 120 mins by luminometric analysis; assay type: functional, K-12 substr. MG1655
# Escherichia coli [13] = assay: Antibacterial activity against Escherichia coli MG1655 harboring pKatG-lux assessed as maximum induction factor at 10^-14 M after 120 mins by luminometric analysis; assay type: functional, K-12 substr. MG1655
# Escherichia coli [14] = assay: Antibacterial activity against Escherichia coli MG1655 harboring pGrpE-lux assessed as maximum induction factor at 10^-5 M after 120 mins by luminometric analysis; assay type: functional, K-12 substr. MG1655
# Escherichia coli [15] = assay: Antibacterial activity against Escherichia coli MG1655 harboring pKatG-lux assessed as maximum induction factor at 10^-6 M after 120 mins by luminometric analysis; assay type: functional, K-12 substr. MG1655
# Escherichia coli [16] = assay: Antibacterial activity against Escherichia coli MG1655 harboring pXen7 assessed as toxicity index at 10^-4 M measured for 2 hrs by luminometric analysis; assay type: functional, K-12 substr. MG1655
# [17] = Activation of quorum sensing system luxR in Escherichia coli MG1655 harboring pVFR1-lux assessed as maximum induction factor at 10^-8 M after 120 mins by luminometric analysis; settings: Escherichia coli str. K-12 substr. MG1655
# Escherichia coli [18] = assay: Antibacterial activity against Escherichia coli MG1655 harboring pSoxS-lux assessed as maximum induction factor at 10^-13 M after 120 mins by luminometric analysis; assay type: functional, K-12 substr. MG1655
# Vibrio sp. [19] = assay: Antibacterial activity against Vibrio aqamarinus VKPM B-11245 assessed as toxicity index at 10^-5 M measured for 2 hrs by luminometric analysis; assay type: functional
# Escherichia coli [20] = assay: Antibacterial activity against Escherichia coli MG1655 harboring pRecA-lux assessed as maximum induction factor at 10^-10 M after 120 mins by luminometric analysis; assay type: functional, K-12 substr. MG1655
# Escherichia coli [21] = assay: Antibacterial activity against Escherichia coli MG1655 harboring pXen7 assessed as toxicity index at 10^-10 M measured for 2 hrs by luminometric analysis; assay type: functional, K-12 substr. MG1655
# [22] = Activation of quorum sensing system luxR in Escherichia coli MG1655 harboring pVFR1-lux assessed as maximum induction factor at 10^-9 M after 120 mins by luminometric analysis; settings: Escherichia coli str. K-12 substr. MG1655
# Escherichia coli [23] = assay: Antibacterial activity against Escherichia coli MG1655 harboring pXen7 assessed as toxicity index at 10^-3 M measured for 2 hrs by luminometric analysis; assay type: functional, K-12 substr. MG1655
# Escherichia coli [24] = assay: Antibacterial activity against Escherichia coli MG1655 harboring pKatG-lux assessed as maximum induction factor at 10^-12 M after 120 mins by luminometric analysis; assay type: functional, K-12 substr. MG1655
# Escherichia coli [25] = assay: Antibacterial activity against Escherichia coli MG1655 harboring pKatG-lux assessed as maximum induction factor at 10^-9 M after 120 mins by luminometric analysis; assay type: functional, K-12 substr. MG1655
# Escherichia coli [26] = assay: Antibacterial activity against Escherichia coli MG1655 harboring pSoxS-lux assessed as maximum induction factor at 10^-11 M after 120 mins by luminometric analysis; assay type: functional, K-12 substr. MG1655
# Escherichia coli [27] = assay: Antibacterial activity against Escherichia coli MG1655 harboring pGrpE-lux assessed as maximum induction factor at 10^-6 M after 120 mins by luminometric analysis; assay type: functional, K-12 substr. MG1655
# Escherichia coli [28] = assay: Antibacterial activity against Escherichia coli MG1655 harboring pGrpE-lux assessed as maximum induction factor at 10^-14 M after 120 mins by luminometric analysis; assay type: functional, K-12 substr. MG1655
# Escherichia coli [29] = assay: Antibacterial activity against Escherichia coli MG1655 harboring pGrpE-lux assessed as maximum induction factor at 10^-9 M after 120 mins by luminometric analysis; assay type: functional, K-12 substr. MG1655
# Vibrio sp. [30] = assay: Antibacterial activity against Vibrio aqamarinus VKPM B-11245 assessed as toxicity index at 10^-3 M measured for 2 hrs by luminometric analysis; assay type: functional
# [31] = Activation of quorum sensing system luxR in Escherichia coli MG1655 harboring pVFR1-lux assessed as maximum induction factor at 10^-3 M after 120 mins by luminometric analysis; settings: Escherichia coli str. K-12 substr. MG1655
# Escherichia coli [32] = assay: Antibacterial activity against Escherichia coli MG1655 harboring pColD-lux assessed as maximum induction factor at 10^-5 M after 120 mins by luminometric analysis; assay type: functional, K-12 substr. MG1655
# Vibrio sp. [33] = assay: Antibacterial activity against Vibrio aqamarinus VKPM B-11245 assessed as toxicity index at 10^-8 M measured for 2 hrs by luminometric analysis; assay type: functional
# Escherichia coli [34] = assay: Antibacterial activity against Escherichia coli MG1655 harboring pRecA-lux assessed as maximum induction factor at 10^-4 M after 120 mins by luminometric analysis; assay type: functional, K-12 substr. MG1655
# Escherichia coli [35] = assay: Antibacterial activity against Escherichia coli MG1655 harboring pXen7 assessed as toxicity index at 10^-13 M measured for 2 hrs by luminometric analysis; assay type: functional, K-12 substr. MG1655
# Escherichia coli [36] = assay: Antibacterial activity against Escherichia coli MG1655 harboring pSoxS-lux assessed as maximum induction factor at 10^-3 M after 120 mins by luminometric analysis; assay type: functional, K-12 substr. MG1655
# Escherichia coli [37] = assay: Antibacterial activity against Escherichia coli MG1655 harboring pXen7 assessed as toxicity index at 10^-5 M measured for 2 hrs by luminometric analysis; assay type: functional, K-12 substr. MG1655
# [38] = Activation of quorum sensing system luxR in Escherichia coli MG1655 harboring pVFR1-lux assessed as maximum induction factor at 10^-13 M after 120 mins by luminometric analysis; settings: Escherichia coli str. K-12 substr. MG1655
# Vibrio sp. [39] = assay: Antibacterial activity against Vibrio aqamarinus VKPM B-11245 assessed as toxicity index at 10^-11 M measured for 2 hrs by luminometric analysis; assay type: functional
compound,measurement,setting,value
O=[N+]([O-])c1cc([N+](=O)[O-])c2no[n+]([O-])c2c1Sc1nc2ccccc2s1,Activity,[1],2.96
same,Activity,Escherichia coli [2],0.92
same,Activity,Escherichia coli [3],0.87
same,Activity,Escherichia coli [4],1.02
same,Activity,Escherichia coli [5],0.71
same,Activity,Escherichia coli [6],1.33
same,Activity,[7],1.71
same,Activity,Escherichia coli [8],1.04
same,Activity,Escherichia coli [9],1.18
same,Activity,Escherichia coli [10],10.52
same,Activity,Escherichia coli [11],1.07
same,Activity,Escherichia coli [12],0.08
same,Activity,Escherichia coli [13],0.78
same,Activity,Escherichia coli [14],0.88
same,Activity,Escherichia coli [15],0.8
same,Activity,Escherichia coli [16],98
same,Activity,[17],2.77
same,Activity,Escherichia coli [18],1.03
same,Activity,Vibrio sp. [19],98.83
same,Activity,Escherichia coli [20],1
same,Activity,Escherichia coli [21],3.82
same,Activity,[22],1.74
same,Activity,Escherichia coli [23],99.87
same,Activity,Escherichia coli [24],1.12
same,Activity,Escherichia coli [25],0.96
same,Activity,Escherichia coli [26],0.99
same,Activity,Escherichia coli [27],1.15
same,Activity,Escherichia coli [28],1.13
same,Activity,Escherichia coli [29],1.03
same,Activity,Vibrio sp. [30],98.83
same,Activity,[31],1.68
same,Activity,Escherichia coli [32],0.87
same,Activity,Vibrio sp. [33],5.97
same,Activity,Escherichia coli [34],0.85
same,Activity,Escherichia coli [35],0
same,Activity,Escherichia coli [36],1.8
same,Activity,Escherichia coli [37],33.59
same,Activity,[38],1.77
same,Activity,Vibrio sp. [39],19.14
